Experimental findings from ChEMBL document CHEMBL5729675, “Sulfonamide compound or salt thereof” (2023) are described below.

This assay concerns the target Ribonucleotide reductase (Homo sapiens, UniProt P23921+Q7LG56). The assay is described as follows: Human RNR Inhibition Effect: The inhibitory activity against the ribonucleotide reduction reaction (hereinafter referred to as RNR reaction) of the test compound was determined by measuring the formation of deoxycytidine diphosphate (hereinafter referred to as dCDP) from cytidine diphosphate (hereinafter referred to as CDP) by the following method.Human M1 subunit and human M2 subunit (mutant ….

Each structure is given as a SMILES string.

Sequence of Ribonucleotide reductase (P23921 whole entry, looked up): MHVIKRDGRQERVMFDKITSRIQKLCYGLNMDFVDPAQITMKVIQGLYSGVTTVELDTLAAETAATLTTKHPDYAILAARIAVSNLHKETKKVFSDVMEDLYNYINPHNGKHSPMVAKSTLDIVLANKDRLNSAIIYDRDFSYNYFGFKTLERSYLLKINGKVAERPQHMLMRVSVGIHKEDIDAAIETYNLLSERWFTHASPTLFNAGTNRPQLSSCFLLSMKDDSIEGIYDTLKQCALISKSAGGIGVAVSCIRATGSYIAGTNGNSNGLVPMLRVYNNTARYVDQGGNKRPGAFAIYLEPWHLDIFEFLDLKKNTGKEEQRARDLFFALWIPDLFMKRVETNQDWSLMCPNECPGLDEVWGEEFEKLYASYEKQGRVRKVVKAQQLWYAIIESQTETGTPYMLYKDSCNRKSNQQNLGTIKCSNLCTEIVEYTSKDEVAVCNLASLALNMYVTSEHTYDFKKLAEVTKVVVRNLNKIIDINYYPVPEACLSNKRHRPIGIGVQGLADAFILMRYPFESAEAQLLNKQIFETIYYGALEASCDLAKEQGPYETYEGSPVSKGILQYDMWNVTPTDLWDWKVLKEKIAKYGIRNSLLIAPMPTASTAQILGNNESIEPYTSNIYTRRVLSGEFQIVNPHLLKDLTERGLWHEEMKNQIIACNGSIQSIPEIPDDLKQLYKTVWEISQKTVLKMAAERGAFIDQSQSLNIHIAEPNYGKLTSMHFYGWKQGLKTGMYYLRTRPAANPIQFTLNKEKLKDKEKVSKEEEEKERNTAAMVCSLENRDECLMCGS
Sequence of Ribonucleotide reductase (Q7LG56 whole entry, looked up): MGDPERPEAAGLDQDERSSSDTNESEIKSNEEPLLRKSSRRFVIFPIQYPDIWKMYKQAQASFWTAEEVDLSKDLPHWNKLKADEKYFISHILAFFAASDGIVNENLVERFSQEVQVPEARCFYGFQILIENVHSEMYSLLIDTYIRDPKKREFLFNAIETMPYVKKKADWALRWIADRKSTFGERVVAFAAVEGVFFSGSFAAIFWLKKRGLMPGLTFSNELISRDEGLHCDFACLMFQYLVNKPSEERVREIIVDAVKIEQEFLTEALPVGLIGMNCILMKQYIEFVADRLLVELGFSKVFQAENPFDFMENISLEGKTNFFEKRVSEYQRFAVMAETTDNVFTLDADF

Broadly, the IC50 is the concentration that gives 50% inhibition. High values mean lower potency, low ones higher potency. Regarding `Cc1ccc(F)c([C@@H](C)[C@H](NS(=O)(=O)c2cc(C(C)(C)O)c(Cl)cc2C(N)=O)c2n[nH]c(=O)o2)c1C`, the IC50 was found to be 60 nM.

Compound `COc1cc(Cl)ccc1S(=O)(=O)N[C@H](c1n[nH]c(=O)o1)[C@H](C)c1c(F)ccc(-c2ccc(Cl)cc2)c1C` came in with an IC50 of 490 nM. As to `CNC(=O)c1cc(Br)cnc1S(=O)(=O)N[C@H](c1n[nH]c(=O)o1)[C@H](C)c1c(F)ccc(C)c1C`, the IC50 turned out to be 250 nM.

For the compound `Cc1c(Br)ccc(F)c1[C@@H](C)[C@H](NS(=O)(=O)c1ccc(Cl)c2c1OCCC2=O)c1n[nH]c(=O)o1`, the midpoint of inhibition, the IC50, lay at 90 nM.

Compound `C[C@H](c1c(F)ccc2ccccc12)[C@H](NS(=O)(=O)c1ccc(Cl)cc1C(N)=O)c1n[nH]c(=O)o1` showed an IC50 of 110 nM. To `Cc1ccc(F)c([C@@H](C)[C@H](NS(=O)(=O)c2ccc(Cl)cc2C(N)=S)c2n[nH]c(=O)o2)c1C` belongs 50 nM; to `Cc1ccc(F)c([C@@H](C)[C@H](NS(=O)(=O)c2ccc(Br)c(C#N)c2)c2n[nH]c(=O)o2)c1C`, 640 nM; to `COc1c(S(=O)(=O)N[C@H](c2n[nH]c(=O)o2)[C@H](C)c2cccc(C)c2C)ccc(Cl)c1C(C)O` (stereo not given in full), 180 nM. Compound `Cc1c(Br)ccc(F)c1[C@@H](C)[C@H](NS(=O)(=O)c1ccc(Cl)cc1C(N)=O)c1n[nH]c(=O)o1` showed an IC50 of 150 nM. `COc1cc(Cl)ccc1S(=O)(=O)N[C@H](c1n[nH]c(=O)o1)[C@H](C)c1c(F)ccc(-c2cnn(C(F)F)c2)c1C` yielded a concentration for half-maximal inhibition (IC50) of 160 nM.

As for `Cc1ccc(F)c([C@@H](C)[C@H](NS(=O)(=O)c2ccc(Br)cc2C(N)=O)c2n[nH]c(=O)o2)c1C`, inhibition was half-maximal at 60 nM (IC50). For the compound `Cc1ccc(F)c([C@@H](C)[C@H](NS(=O)(=O)c2ccc(F)c3c2OCCC3=O)c2n[nH]c(=O)o2)c1C`, it took 160 nM to reach half-maximal inhibition (IC50). The compound `Cc1c(Cl)ccc(F)c1[C@@H](C)[C@H](NS(=O)(=O)c1ccc(Cl)c2c1OCCN2C)c1n[nH]c(=O)o1` returned a 50% inhibitory concentration (IC50) of 130 nM.

The compound `Cc1ccc(F)c([C@@H](C)[C@H](NS(=O)(=O)c2cccc3[nH]ccc23)c2n[nH]c(=O)o2)c1C` registered a 50% inhibitory concentration (IC50) of 710 nM. Turning to `Cc1ccc(F)c([C@@H](C)[C@H](NS(=O)(=O)c2c(F)cccc2F)c2n[nH]c(=O)o2)c1C`, it took 960 nM to reach half-maximal inhibition (IC50).

In turn, `Cc1ccc(F)c([C@@H](C)[C@H](NS(=O)(=O)c2ncc(Cl)cc2C(=O)O)c2n[nH]c(=O)o2)c1C` registered an IC50 of 500 nM. In the case of `Cc1cccc([C@@H](C)[C@H](NS(=O)(=O)c2ccc(Cl)cc2C(N)=O)c2n[nH]c(=O)o2)c1C`, 300 nM corresponded to half-maximal inhibition (IC50).

As to `COC(=O)c1cc(Br)cnc1S(=O)(=O)N[C@H](c1n[nH]c(=O)o1)[C@H](C)c1c(F)ccc(C)c1C`, the IC50 worked out at 450 nM. Compound `COc1nc(Cl)ccc1S(=O)(=O)N[C@H](c1n[nH]c(=O)o1)[C@H](C)c1c(F)ccc(C)c1C` displayed an IC50 of 100 nM. Take `Cc1ccc(F)c([C@@H](C)[C@H](NS(=O)(=O)c2ccc(Cl)c(-c3cnn(C)c3)c2)c2n[nH]c(=O)o2)c1C`: the IC50 stood at 220 nM.
